Results from patent US6297230A, “Cyanoaziridines for treating cancer” (priority 2000, dated 2001).
Converted amounts (≈) assume the structure as drawn. “Also recorded” adds a separate entry of the source. Like-named read-outs stand apart in the source and are kept apart here.

Legend:
8226/I-R myeloma cells = experiment: MTT growth inhibition, imexon-resistant 8226 myeloma cells; format: cell-based, human; conditions: for Cross-resistance with imexon: 8226 imexon-resistant vs parental; for IC50 / Fold Resistance of IC50 R/IC50 's: Table 5; for IC50: imexon-resistant 8226; for Fold Resistance of IC50 R/IC50 's: imexon-resistant vs sensitive 8226
Protocol: (§1) Microculture Tetrazolium (MTT) Assay for Tumor Cells
(§2) Tumors are disaggregated into single cell suspensions using mechanical, hypoosmotic, and/or enzymatic (trypsin) methods. The cells are plated at a concentration of 3-5×10^4 per […] well into plastic 96-well plates. Growth medium containing 5-10% (vol/vol) heat-inactivated fetal bovine serum and penicillin/streptomycin (both […]) are added prior to incubation at 37° C. for 6 days. Afterwards the medium containing the drug is removed, the cells are centrifuged in fresh medium or phosphate-buffered saline (pH 7.4). A tetrazolium dye, […]-2,5-diphenyl tetrazolium (MTT), is then added. (Mossman, T., J Immunol 65:55-63, 1983.) This dye forms a colored formazan product upon activation by mitochondrial reductases in viable cells. Typically, the formazan product is solubilized in acid-propanol or DMSO. The intensity of the color is proportional to viable cell numbers and this is quantitated by spectrophotometric absorbance at 570 nm on a micro ELISA plate reader. The results are calibrated in % control absorbance from untreated tumor cells. (Alley, et al., Cancer Res 48:589-601, 1988.)
(§3) The following unpublished studies were performed in vitro to develop and characterize a human myeloma cell line with resistance to imexon-induced cytotoxicity. The original (parental) 8226 cell line was developed by Matsuoka, et al. (Matsuoka, et al., Proc Soc Exp Biol Med 125:1246-1250, 1967). It is a lymphoblastoid cell line which stains for lambda light immunoglobulin production. It grows in vitro in suspension culture (non-adherent) and forms tumors when injected into SCID mice. (Skehan, et al., J Natl Cancer Inst 82:1107-1112, 1990.)
(§4) One exciting feature of our novel compounds is, that they work on imexon-resistant cells. An imexon-resistant 8226 myeloma cell line was selected by continuously exposing cells to gradually increasing concentrations of imexon up to 3.25 mg/mL. This cell line has slightly longer cell doubling time than 8226 sensitive cells (24 vs 20 hours). […] The dose response curve for imexon continuous exposure was determined using MTT assay. Each data point represents the mean of three experiments performed in 8 replicates.
(§5) We compared IC50 concentrations and there is a 4-fold resistance observed for the 8226/I-R cell line when the cells were continuously exposed to imexon for […] at 37° C. The degree of resistance was relatively unstable in the absence of the drug, with the resistant cells losing substantial resistance when maintained in imexon-free medium for 20 weeks (FIG. 2).
(§6) IC50 was measured by MTT assay. IC50 refer to the concentration by drug that results in 50% growth inhibition. A minimum of 2 assays were performed for each drug following 250 mg/mL imexon is equivalent to 6.5 cGy radiation in sensitive cells.
(§7) Using the colorimetric microculture tetrazolium (MTT) assay, imexon and 25-related analogs were studied for tumor growth inhibition in vitro. Imexon-induced DNA single strand breaks were assessed by alkaline elution. Cells were exposed to imexon for 1 hour prior to start of experiment. The fraction of ^14 C-labeled DNA retained on the filter is plotted against the time of elution. The cells included parental 8226 myeloma cells and the 8226 imexon-resistant cells exposed to drug (imexon or analog) continuously for 10 days at 37° C. At the end of the exposure period, the cells were analyzed for viability using the formazan-forming tetrazolium dye (MTT) assay.

8226/S myeloma cells = experiment: MTT growth inhibition, parental 8226 myeloma cells; format: cell-based, human; conditions: for IC50: Table 5, Sensitive (parental) 8226; for Enhanced potency: decrease in IC50 against myeloma cell growth: compared with imexon; for Potency relative to imexon: myeloma cells; for Antitumor effect: parental and imexon-resistant myeloma cells
Protocol: as §1, §2, §3, §4, §5, §6, §7

[1] = test system: L-1210 MDR leukemia cells; experiment: MTT growth inhibition, multidrug-resistant L-1210 leukemia cells; format: cell-based, mouse; conditions: for Fold Resistance of IC50 's (MDR/S): L-1210 MDR vs sensitive, 11520 min; for IC50: MDR L-1210, drug continuously present 8 days
Protocol: as §2
In addition, the imexon analogs have also been tested in a multidrug-resistant (MDR) mouse L-1210 leukemia cell line.
L-1210 MDR Cells represent a multidrug-resistant cell line developed for resistance to the alkylating agent mitomycin C. (Dorr, et al., Biochem Pharmacol 36(19):3115-3120, 1987.) This cell line has the same general growth characteristics of the parental line, but is cross-resistant to numerous natural-product based anticancer agents. This includes anthracyclines such as doxorubicin (Adriamycin®) and vinca alkaloids such as vincristine or vinblastine.
*Drug continuously present for 8 days; IC50 measured by MTT dye

MCF-7/MITOX cells = experiment: In vitro antitumor activity, MCF-7/MITOX; format: cell-based; conditions: Homo sapiens, MCF7/Mitox; MCF-7 breast, mitoxantrone resistant
Excerpt: 1) in vitro tumor cell viability assays using MTT and SRB dye reaction endpoints.
Sulforhodamine B (SRB) Assay for Adherent Tumor Cells
Sulforhodamine B (SRB) is a protein binding aminoxanthene dye with two sulfonic acid groups. (Lillie, R. D., H. J. Conn's Biological Stains, 9th Ed., Baltimore; Williams & Wilkins, 1977.) It quantitates whole cell protein content by the intensity of dye staining and relates this to the number of viable cells. […] The SRB assay is used for cells which normally adhere to surfaces (in this case plastic culture flasks or petri dishes) as part of their requirement for growth and division in vitro. The SRB assay is currently used by the National Cancer Institute in the anticancer drug screening program. (Skehan, et al., J Natl Cancer Inst 82:1107-1112, 1990; Rubinstein, et al., J Natl Cancer Inst 82:1113-1118, 1990.) Methodologic comparisons have shown that SRB results are linear for the number of tumor cells over a 100-fold range, and for protein content determined by a modified Lowry method or Standard Bradford (Bradford, M., Anal Biochem 72:248-254, 1976) methods. […] (Lillie, R. D., H. J. Conn's Biological Stains, 9th Ed., Baltimore; Williams & Wilkins, 1977.)
Cell cultures of 10^3 -10^7 cells growing in 96-well plastic microtiter plates are fixed with 50% trichloroacetic acid (TCA) for 30 minutes at 4° C. The cells are then stained with 0.4% (w/v) sulforhodamine B (SRB) dissolved in 1% acetic acid. Unbound dye is removed by 4 washes with 1% acetic acid, and protein-bound dye is extracted with 10 mM unbuffered Tris® base [tris(hydroxymethyl)aminomethane]. The optical density (OD) of this extracted solution is measured at […] in a microtiter plate ultraviolet absorbance detector. Cell viability is expressed as percent of control by dividing the optical densities and multiplying the result by 100.
as §1, §2
Table 3 gives the potencies of the new aziridine-1-carboxamides in a panel of human and murine tumor cells in culture. The tumor cell lines in this table are selected to represent a range of histological and growth phenotypes. Their characteristics are described below.
1.3 MCF-7/D40 and MCF-7/MITOX cell lines were developed by chronic exposure in vitro to increasing concentrations of the DNA-intercalating antitumor agents doxorubicin and mitoxantrone, respectively. […] The MCF-7/D40 cells express the cell membrane efflux pump, P-glycoprotein and are over 40-fold resistant to doxorubicin, mitoxantrone and the vinca alkaloids, vinblastine and vincristine.

[2] = Mus musculus, L1210, 192 h, read-out: IC50

Structure (SMILES)	Cross-resistance with imexon (8226/I-R myeloma cells)	IC50 (8226/I-R myeloma cells; Homo sapiens, read-out: IC50) [µg/mL]	Fold Resistance of IC50 R/IC50 's (8226/I-R myeloma cells)	IC50 (8226/S myeloma cells; Homo sapiens, read-out: IC50) [µg/mL]	Fold Resistance of IC50 's (MDR/S) [1]	IC50 [1, 2] [µg/mL]	IC50 (MCF-7/MITOX cells) [µg/mL]	Enhanced potency: decrease in IC50 against myeloma cell growth (8226/S myeloma cells) [%]	Potency relative to imexon (8226/S myeloma cells)	Antitumor effect (8226/S myeloma cells)	IC50 (8226/I-R myeloma cells) [µg/mL]	IC50 (8226/S myeloma cells) [µg/mL]	IC50 [1] [µg/mL]
CNC(=O)N1CC1C#N (stereo not drawn) [AMP 403, 2-Cyanoaziridine-1-(N-methyl)carboxamide]	lack of significant (>50% IC50 change) cross-resistance with imexon	3.3 (≈ 26.4 µM)	1.0	3.3 (≈ 26.4 µM)	2.5	2.7 (≈ 21.6 µM)	2.3 (≈ 18.4 µM)						
N#CC1CN1C(=O)Nc1ccccc1 (stereo not drawn) [AMP 404, 2-Cyanoaziridine-1-(N-phenyl)carboxamide]	lack of significant (>50% IC50 change) cross-resistance with imexon	1.5 (≈ 8.01 µM)	1.5	1 (≈ 5.34 µM)	10.5	2.1 (≈ 11.2 µM)	0.8 (≈ 4.27 µM)						
CCNC(=O)N1CC1C#N (stereo not drawn) [AMP 406, 2-Cyanoaziridine-1-(N-ethyl)carboxamide]		3.6 (≈ 25.9 µM)	1.2	3.1 (≈ 22.3 µM)	1.0	2 (≈ 14.4 µM)	1.4 (≈ 10.1 µM)						
N#CC1CN1C(=O)Nc1ccc(Cl)cc1Cl (stereo not drawn) [AMP 407, 2-Cyanoaziridine-1-[N-(2,4-dichlorophenyl)]carboxamide]		2.4 (≈ 9.37 µM)	2.0	1.2 (≈ 4.69 µM)	0.16	8.4 (≈ 32.8 µM)		> 40					
CC(C)(C)NC(=O)N1CC1C#N (stereo not drawn) [AMP 410, 2-Cyanoaziridine-1-(N-t-butyl)carboxamide]		36 (≈ 215 µM)	1.8	20 (≈ 120 µM)	1.4	30.7 (≈ 184 µM)	20.1 (≈ 120 µM)						
N#CC1CN1C(=O)NCc1ccccc1 (stereo not drawn) [AMP 412, 2-Cyanoaziridine-1-(N-benzyl)carboxamide]	lack of significant (>50% IC50 change) cross-resistance with imexon; also recorded: no significant cross resistance	2.2 (≈ 10.9 µM)	1.2	1.8 (≈ 8.95 µM)	2.6	2.1 (≈ 10.4 µM)	0.7 (≈ 3.48 µM)		roughly equal potency to imexon				
CCCCNC(=O)N1CC1C#N (stereo not drawn) [AMP 414, 2-Cyanoaziridine-1-(N-butyl)carboxamide]	lack of significant (>50% IC50 change) cross-resistance with imexon	2.8 (≈ 16.7 µM)	1.0	2.8 (≈ 16.7 µM)	1.0	2 (≈ 12 µM)							
N#CC1CN1C(=O)Nc1ccc([N+](=O)[O-])cc1 (stereo not drawn) [AMP 417, 2-Cyanoaziridine-1-[N-(4-nitrophenyl)]carboxamide]	lack of significant (>50% IC50 change) cross-resistance with imexon; also recorded: no significant cross resistance	2 (≈ 8.61 µM)	0.95	2.1 (≈ 9.04 µM)	1.0	0.6 (≈ 2.58 µM)			roughly equal potency to imexon				
CCOC(=O)c1ccc(NC(=O)N2CC2C#N)cc1 (stereo not drawn) [AMP 419, 2-Cyanoaziridine-1-[N-(4-ethoxycarbonylphenyl)]carboxamide]	lack of significant (>50% IC50 change) cross-resistance with imexon				1.2	3 (≈ 11.6 µM)							
CCOC(=O)CNC(=O)N1CC1C#N (stereo not drawn) [AMP 420, 2-Cyanoaziridine-1-[N-(ethoxycarbonyl)methyl]carboxamide]	lack of significant (>50% IC50 change) cross-resistance with imexon	6 (≈ 30.4 µM)	1.2	5 (≈ 25.4 µM)	1.0	2.5 (≈ 12.7 µM)							
N#CC1CN1C(=O)Nc1cccnc1 (stereo not drawn) [AMP 421, 2-Cyanoaziridine-1-[N-(3-pyridyl)]carboxamide]	lack of significant (>50% IC50 change) cross-resistance with imexon	2.8 (≈ 14.9 µM)	1.3	2.2 (≈ 11.7 µM)	0.9	2.1 (≈ 11.2 µM)							
N#CC1CN1C(=O)Nc1ccc(S(N)(=O)=O)cc1 (stereo not drawn) [AMP 422, 2-Cyanoaziridine-1-[N-(4-sulfamylphenyl)]carboxamide]		< 100		> 100		> 10				no antitumor effects even at high concentrations			
N#CC1CN1C(=O)Nc1cccc2ccccc12 (stereo not drawn) [AMP 423, 2-Cyanoaziridine-1-[N-(1-naphthyl)]carboxamide]		2.1 (≈ 8.85 µM)	2.1	1 (≈ 4.21 µM)	0.4	0.64 (≈ 2.7 µM)		> 40					
CC(=O)Oc1ccccc1NC(=O)N1CC1C#N (stereo not drawn) [AMP 424, 2-Cyanoaziridine-1-[N-(2-acetoxyphenyl)]carboxamide]					1.0					no antitumor effects even at high concentrations	> 100	> 100	> 10
CC(=O)c1cccc(NC(=O)N2CC2C#N)c1 (stereo not drawn) [AMP 425, 2-Cyanoaziridine-1-[N-(3-acetylphenyl)]carboxamide]	lack of significant (>50% IC50 change) cross-resistance with imexon; also recorded: no significant cross resistance	2.2 (≈ 9.6 µM)	1.1	1.98 (≈ 8.64 µM)	0.8	1.8 (≈ 7.85 µM)			roughly equal potency to imexon				
